For 18 compounds, IC50 results are on record in US12371454B2, “Cyclic peptide compound having Kras inhibitory action” (priority 2019, dated 2025).

pIC50: −log10 of the molar value. Positions of bridges follow the written chain, without caps; N, C: chain ends. Non-standard residues stand in square brackets, D forms with d. Residues, ends and D or L forms follow the SMILES beside them. *: point of attachment. hPhe(3-Cl-4-CF3) = N[C@@H](CCc1ccc(C(F)(F)F)c(Cl)c1)C(=O)O; hPhe(3-F,4-CF3) = N[C@@H](CCc1ccc(C(F)(F)F)c(F)c1)C(=O)O; NMePhe(4-CF3) = CN[C@@H](Cc1ccc(C(F)(F)F)cc1)C(=O)O; hPhe(4-CF3) = N[C@@H](CCc1ccc(C(F)(F)F)cc1)C(=O)O; NMePhe(4-Me) = CN[C@@H](Cc1ccc(C)cc1)C(=O)O; NMeNle(6-CHF2) = CN[C@@H](CCCCC(F)F)C(=O)O; NMeGly(cPent) = CN[C@H](C(=O)O)C1CCCC1; Pro(4,4-F2) = O=C(O)[C@@H]1CC(F)(F)CN1; NMeCha = CN[C@@H](CC1CCCCC1)C(=O)O; NMeD = CN[C@@H](CC(=O)O)C(=O)O; CH2CONHtBu = CC(C)(C)NC(=O)C*; NMeL = CN[C@@H](CC(C)C)C(=O)O; Chg = N[C@H](C(=O)O)C1CCCCC1; NMeNle = CCCC[C@H](NC)C(=O)O; NMeV = CN[C@H](C(=O)O)C(C)C; d(β3hA) = C[C@@H](N)CC(=O)O; NMeS = CN[C@@H](CO)C(=O)O; NMeA = CN[C@@H](C)C(=O)O; Piperidide = C1CCN(*)CC1; Pra = C#CC[C@H](N)C(=O)O; dNMeA = CN[C@H](C)C(=O)O; Ac5c = NC1(C(=O)O)CCCC1; Aze = O=C(O)[C@@H]1CCN1; CH2CMe2OH = CC(C)(O)C*; Aib = CC(C)(N)C(=O)O; Isopentyl = CC(C)CC*; NEtG = CCNCC(=O)O; Sar = CNCC(=O)O

T1 sequence (P01116 1-188 isoform P01116-2 G12D): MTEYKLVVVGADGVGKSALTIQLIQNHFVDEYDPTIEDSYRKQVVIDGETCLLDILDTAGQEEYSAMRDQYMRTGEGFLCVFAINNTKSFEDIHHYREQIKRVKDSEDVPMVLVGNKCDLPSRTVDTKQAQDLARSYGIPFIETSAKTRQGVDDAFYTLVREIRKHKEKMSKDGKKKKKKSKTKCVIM

The experiment addresses T1, Kras and SOS1 (biotin-tagged human Kras loaded with GDP, His-tagged human SOS1) (Homo sapiens, UniProt P01116, G12D).
T1 construct: made in house; host or cells: E. coli (stated for Kras only)
Put plainly: Protein-protein interaction inhibition between Kras and SOS1 (KrasGl2D-SOS PPI) using AlphaScreen. The class given is binding. To be noted: AlphaScreen; biotin-tagged human Kras loaded with GDP, His-tagged human SOS1; read-out: KRAS G12D-SOS PPI IC50. Summed up: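 Kras was produced in E. coli, purified, then loaded with GDP. It was paired via streptavidin acceptor beads with His-SOS1 held on nickel donor beads, and proximity signal at 520-620 nm was read after 680 nm illumination.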
In the case of `CC[C@H](C)[C@@H]1NC(=O)[C@H](C)N(C)C(=O)C[C@@H](C)NC(=O)[C@H](C2CCCC2)N(C)C(=O)C2(CCCC2)NC(=O)[C@@H]2CCCN2C(=O)[C@H](CCc2ccc(C(F)(F)F)c(Cl)c2)NC(=O)[C@@H](C)N(C)C(=O)[C@H](Cc2ccc(C(F)(F)F)cc2)N(C)C(=O)[C@@H]2CCN2C(=O)CN(C)C1=O` [Compound 1507] (cyclo([Ac5c][NMeGly(cPent)][d(β3hA)][NMeA]I[Sar][Aze][NMePhe(4-CF3)][dNMeA][hPhe(3-Cl-4-CF3)]P)), the pIC50 (usually the negative decadic logarithm of the IC50, by convention in mol/L) was 7.62.
For `CC[C@H](C)[C@@H]1NC(=O)[C@H](CC(C)C)N(C)C(=O)C[C@@H](C)NC(=O)[C@H](CC(C)C)N(C)C(=O)C2(CCCC2)NC(=O)[C@@H]2CC(F)(F)CN2C(=O)[C@H](CCc2ccc(C(F)(F)F)c(F)c2)NC(=O)CN(C)C(=O)[C@H](CC2CCCCC2)N(C)C(=O)CN(C)C(=O)CN(C)C1=O` [Compound 1509] (cyclo([Ac5c][NMeL][d(β3hA)][NMeL]I[Sar][Sar][NMeCha][Sar][hPhe(3-F,4-CF3)][Pro(4,4-F2)])) the value was 7.64.
Regarding `CC[C@H](C)[C@@H]1NC(=O)[C@H](C)N(C)C(=O)C[C@@H](C)NC(=O)[C@H](C2CCCC2)N(C)C(=O)C2(CCCC2)NC(=O)[C@@H]2CCCN2C(=O)[C@H](CCc2ccc(C(F)(F)F)c(Cl)c2)NC(=O)[C@@H](C)N(C)C(=O)[C@H](CC2CCCCC2)N(C)C(=O)[C@@H]2CCN2C(=O)[C@H](C)N(C)C1=O` [Compound 1510] (cyclo([Ac5c][NMeGly(cPent)][d(β3hA)][NMeA]I[NMeA][Aze][NMeCha][dNMeA][hPhe(3-Cl-4-CF3)]P)), the pIC50 was 6.96.
The result for `CC[C@H](C)[C@@H]1NC(=O)[C@H](CC(C)C)N(C)C(=O)C[C@@H](C)NC(=O)[C@H](CC(C)C)N(C)C(=O)C(C)(C)NC(=O)[C@H](COCC(=O)NC(C)(C)C)N(C)C(=O)[C@H](CCc2ccc(C(F)(F)F)c(Cl)c2)NC(=O)CN(C)C(=O)[C@H](COCCC(C)C)N(C)C(=O)[C@@H]2CCN2C(=O)CN(CC)C1=O` [Compound 1513] (cyclo([Aib][NMeL][d(β3hA)][NMeL]I[NEtG][Aze][NMeS](Isopentyl)[Sar][hPhe(3-Cl-4-CF3)][NMeS](CH2CONHtBu))) reads 6.57; that for `CC[C@H](C)[C@@H]1NC(=O)[C@H](CC(C)C)N(C)C(=O)C[C@@H](C)NC(=O)[C@H](CC(C)C)N(C)C(=O)C2(CCCC2)NC(=O)[C@@H]2CCCN2C(=O)[C@H](CCc2ccc(C(F)(F)F)c(F)c2)NC(=O)CN(C)C(=O)[C@H](CCCCC(F)F)N(C)C(=O)CN(C)C(=O)CN(C)C1=O` [Compound 1515] (cyclo([Ac5c][NMeL][d(β3hA)][NMeL]I[Sar][Sar][NMeNle(6-CHF2)][Sar][hPhe(3-F,4-CF3)]P)), 7.11.
As to `CCCC[C@H]1C(=O)N[C@H](C)CC(=O)N(C)[C@@H](CC(C)C)C(=O)N[C@@H]([C@@H](C)CC)C(=O)N(C)CC(=O)N(C)CC(=O)N(C)[C@@H](CC2CCCCC2)C(=O)N(C)CC(=O)N[C@@H](CCc2ccc(C(F)(F)F)c(F)c2)C(=O)N2CCC[C@H]2C(=O)NC2(CCCC2)C(=O)N1C` [Compound 1518] (cyclo([Ac5c][NMeNle][d(β3hA)][NMeL]I[Sar][Sar][NMeCha][Sar][hPhe(3-F,4-CF3)]P)), the pIC50 is 6.43.
The result for `CC[C@H](C)[C@@H]1NC(=O)[C@H](C)N(C)C(=O)C[C@@H](C)NC(=O)[C@H](C2CCCC2)N(C)C(=O)C2(CCCC2)NC(=O)[C@@H]2CCCN2C(=O)[C@H](CCc2ccc(C(F)(F)F)c(Cl)c2)NC(=O)[C@@H](C)N(C)C(=O)[C@H](Cc2ccc(C(F)(F)F)cc2)N(C)C(=O)CN(C)C(=O)CN(C)C1=O` [Compound 1520] (cyclo([Ac5c][NMeGly(cPent)][d(β3hA)][NMeA]I[Sar][Sar][NMePhe(4-CF3)][dNMeA][hPhe(3-Cl-4-CF3)]P)) reads 7.23; that for `CC[C@H](C)[C@@H]1NC(=O)[C@H](CC(C)C)N(C)C(=O)C[C@@H](C)NC(=O)[C@H](C2CCCC2)N(C)C(=O)C2(CCCC2)NC(=O)[C@@H]2CCCN2C(=O)[C@H](CCc2ccc(C(F)(F)F)c(Cl)c2)NC(=O)[C@@H](C)N(C)C(=O)[C@H](Cc2ccc(C)cc2)N(C)C(=O)CN(C)C(=O)CN(C)C1=O` [Compound 1521] (cyclo([Ac5c][NMeGly(cPent)][d(β3hA)][NMeL]I[Sar][Sar][NMePhe(4-Me)][dNMeA][hPhe(3-Cl-4-CF3)]P)), 6.96; that for `CC[C@H](C)[C@@H]1NC(=O)[C@H](C)N(C)C(=O)C[C@@H](C)NC(=O)[C@H](C2CCCC2)N(C)C(=O)C2(CCCC2)NC(=O)[C@@H]2CCCN2C(=O)[C@H](CCc2ccc(C(F)(F)F)c(Cl)c2)NC(=O)[C@H]2CCCN2C(=O)[C@H](Cc2ccc(C(F)(F)F)cc2)N(C)C(=O)[C@@H]2CCN2C(=O)CN(C)C1=O` [Compound 1522] (cyclo([Ac5c][NMeGly(cPent)][d(β3hA)][NMeA]I[Sar][Aze][NMePhe(4-CF3)][dP][hPhe(3-Cl-4-CF3)]P)), 7.05.
For `CC[C@H](C)[C@@H]1NC(=O)[C@H](CC(C)C)N(C)C(=O)C[C@@H](C)NC(=O)[C@H](CC(C)C)N(C)C(=O)C(C)(C)NC(=O)[C@H](CC(C)C)N(C)C(=O)[C@H](CCc2ccc(C(F)(F)F)c(F)c2)NC(=O)CN(C)C(=O)[C@H](CCCCC(F)F)N(C)C(=O)CN(C)C(=O)CN(C)C1=O` [Compound 1526] (cyclo([Aib][NMeL][d(β3hA)][NMeL]I[Sar][Sar][NMeNle(6-CHF2)][Sar][hPhe(3-F,4-CF3)][NMeL])) the value was 7.00.
As for `CC(C)C[C@H]1C(=O)N[C@@H](C2CCCCC2)C(=O)N(C)CC(=O)N(C)CC(=O)N(C)[C@@H](CC2CCCCC2)C(=O)N(C)CC(=O)N[C@@H](CCc2ccc(C(F)(F)F)c(F)c2)C(=O)N2CCC[C@H]2C(=O)NC2(CCCC2)C(=O)N(C)[C@@H](CC(C)C)C(=O)N[C@H](C)CC(=O)N1C` [Compound 1527] (cyclo([Ac5c][NMeL][d(β3hA)][NMeL][Chg][Sar][Sar][NMeCha][Sar][hPhe(3-F,4-CF3)]P)), the pIC50 was 6.72.
As for `CC[C@H](C)[C@@H]1NC(=O)[C@H](CC(C)C)N(C)C(=O)C[C@@H](C(=O)N2CCCCC2)N(C)C(=O)[C@H](CC(C)C)N(C)C(=O)C(C)(C)NC(=O)[C@H](COCC(C)(C)O)N(C)C(=O)[C@H](CCc2ccc(C(F)(F)F)cc2)NC(=O)CN(C)C(=O)[C@H](COCCC(C)C)N(C)C(=O)CN(C)C(=O)CN(CC)C1=O` [Compound 1528] ([NMeL]I[NEtG][Sar][NMeS](Isopentyl)[Sar][hPhe(4-CF3)][NMeS](CH2CMe2OH)[Aib][NMeL][NMeD]-Piperidide; lactam N-11), the pIC50 was 7.39.
The result for `CC[C@H](C)[C@@H]1NC(=O)[C@H](CC(C)C)N(C)C(=O)C[C@@H](C)NC(=O)[C@H](C2CCCC2)N(C)C(=O)C2(CCCC2)NC(=O)[C@@H]2CCCN2C(=O)[C@H](CCc2ccc(C(F)(F)F)c(Cl)c2)NC(=O)[C@@H](C)N(C)C(=O)[C@H](CC2CCCCC2)N(C)C(=O)CN(C)C(=O)CN(C)C1=O` [Compound 1530] (cyclo([Ac5c][NMeGly(cPent)][d(β3hA)][NMeL]I[Sar][Sar][NMeCha][dNMeA][hPhe(3-Cl-4-CF3)]P)) reads 6.89.
For the compound `CC[C@H](C)[C@@H]1NC(=O)[C@H](CC(C)C)N(C)C(=O)C[C@@H](C(=O)N2CCCCC2)N(C)C(=O)[C@H](CC(C)C)N(C)C(=O)C(C)(C)NC(=O)[C@H](COCC(C)(C)O)N(C)C(=O)[C@H](CCc2ccc(C(F)(F)F)c(F)c2)NC(=O)CN(C)C(=O)[C@H](COCCC(C)C)N(C)C(=O)CN(C)C(=O)CN(C)C1=O` [Compound 1532] ([NMeL]I[Sar][Sar][NMeS](Isopentyl)[Sar][hPhe(3-F,4-CF3)][NMeS](CH2CMe2OH)[Aib][NMeL][NMeD]-Piperidide; lactam N-11), the pIC50 is 8.32.
The result for `C#CC[C@@H]1NC(=O)[C@H](CC(C)C)N(C)C(=O)C[C@@H](C)NC(=O)[C@H](CC(C)C)N(C)C(=O)C2(CCCC2)NC(=O)[C@@H]2CCCN2C(=O)[C@H](CCc2ccc(C(F)(F)F)c(F)c2)NC(=O)CN(C)C(=O)[C@H](CC2CCCCC2)N(C)C(=O)CN(C)C(=O)CN(C)C1=O` [Compound 1533] (cyclo([Ac5c][NMeL][d(β3hA)][NMeL][Pra][Sar][Sar][NMeCha][Sar][hPhe(3-F,4-CF3)]P)) reads 7.17; that for `CC[C@H](C)[C@@H]1NC(=O)[C@H](CC(C)C)N(C)C(=O)C[C@@H](C)NC(=O)[C@H](C(C)C)N(C)C(=O)C2(CCCC2)NC(=O)[C@@H]2CCCN2C(=O)[C@H](CCc2ccc(C(F)(F)F)c(F)c2)NC(=O)CN(C)C(=O)[C@H](CC2CCCCC2)N(C)C(=O)CN(C)C(=O)CN(C)C1=O` [Compound 1534] (cyclo([Ac5c][NMeV][d(β3hA)][NMeL]I[Sar][Sar][NMeCha][Sar][hPhe(3-F,4-CF3)]P)), 7.21.
The result for `CC[C@H](C)[C@@H]1NC(=O)[C@H](C)N(C)C(=O)C[C@@H](C)NC(=O)[C@H](C2CCCC2)N(C)C(=O)C2(CCCC2)NC(=O)[C@@H]2CCCN2C(=O)[C@H](CCc2ccc(C(F)(F)F)c(Cl)c2)NC(=O)[C@@H](C)N(C)C(=O)[C@H](CC2CCCCC2)N(C)C(=O)CN(C)C(=O)CN(C)C1=O` [Compound 1535] (cyclo([Ac5c][NMeGly(cPent)][d(β3hA)][NMeA]I[Sar][Sar][NMeCha][dNMeA][hPhe(3-Cl-4-CF3)]P)) reads 7.39; that for `CC[C@H](C)[C@@H]1NC(=O)[C@H](C)N(C)C(=O)C[C@@H](C)NC(=O)[C@H](C2CCCC2)N(C)C(=O)C2(CCCC2)NC(=O)[C@@H]2CCCN2C(=O)[C@H](CCc2ccc(C(F)(F)F)c(Cl)c2)NC(=O)[C@H]2CCCN2C(=O)[C@H](Cc2ccc(C)cc2)N(C)C(=O)[C@@H]2CCN2C(=O)[C@H](C)N(C)C1=O` [Compound 1540] (cyclo([Ac5c][NMeGly(cPent)][d(β3hA)][NMeA]I[NMeA][Aze][NMePhe(4-Me)][dP][hPhe(3-Cl-4-CF3)]P)), 6.64.
